Patent US10420798B2, “Method for treating lung injury and/or diseases related to lung injury” (TAIWAN MITOCHONDRION APPLIED TECHNOLOGY CO., LTD, priority 2014, dated 2019)

How the values were obtained:
[1] = tested on: rat model of acute respiratory distress syndrome; assay: arterial oxygen saturation in rat model of acute respiratory distress syndrome; type: in vivo; conditions: ARDS rats; melatonin 50 mg/kg i.p. at 6th and 24th hour; mitochondria 1500 μg per rat i.v. at 6th hour
Protocol: (§1) A total of forty (40) specific pathogen free (SPF) adult male SD rats, each weighing 350-400 g (Charles River Technology, BioLASCO Biotechnology Co., Ltd., Taiwan) were used in the examples. The SD rats were randomly divided into 5 groups: the first group was the normal control group; the second group was the rat model of acute respiratory distress syndrome; the third group was the rat model of acute respiratory distress syndrome intraperitoneally injected with melatonin, with each dose of 50 mg per kilogram, at the 6th and the 24th hour after breathing pure oxygen; the fourth group was the rat model of acute respiratory distress syndrome intravenously injected mitochondria, with a dose of 1500 μg per rat, at the 6th hour after breathing pure oxygen; the fifth group was the rat model of acute respiratory distress syndrome administered melatonin and mitochondria in the same manners, frequency, and doses as those of the third group and the fourth group, respectively.
Rats in each group in Example 5 were anesthetized. Arterial blood was taken from the carotid arteries of rats in each group, and the oxygen saturation of the blood samples was analyzed.
The rat model of acute respiratory distress syndrome was divided into two groups. One group was given 750 μg of mitochondria per rat, and the other group was given 1500 μg of mitochondria per rat. […]

[2] = tested on: rat model of acute respiratory distress syndrome; assay: right ventricular systolic pressure in rat model of acute respiratory distress syndrome; type: in vivo; conditions: ARDS rats; melatonin 50 mg/kg i.p. at 6th and 24th hour; mitochondria 1500 μg per rat i.v. at 6th hour
Protocol: (§2) A total of forty (40) specific pathogen free (SPF) adult male SD rats, each weighing 350-400 g (Charles River Technology, BioLASCO Biotechnology Co., Ltd., Taiwan) were used in the examples. […]
Then, rats in each group were provided air with positive pressure ventilation (180 ml per minute) using small animal ventilators (SAR-830/A, CWE, Inc., USA) and intubation. […] Signals of right ventricular systolic pressure were measured with a pressure transducer (UFI, model 1050, CA, USA) and transmitted to bridge amplifiers (ML866 PowerLab 4/30 Data Acquisition Systems. ADlnstruments Pty Ltd., Castle Hill, NSW, Australia) to obtain the right ventricular systolic pressure of rats in each group as a reference for pulmonary hypertension. In addition, femoral artery systolic blood pressure of rats in each group was measured. The right ventricular systolic pressure and the femoral artery systolic blood pressure were analyzed by software (Labchart, ADlnstrument). […]

[3] = tested on: rat model of acute respiratory distress syndrome; assay: albumin in BAL fluid (SDS-PAGE, Coomassie Blue); type: in vivo; conditions: ARDS rats; doses of Example 5
Protocol: as §1
(§3) BAL fluid was obtained from rats in each group by bronchoalveolar lavage (BAL). SDS-PAGE and Coomassie Blue staining were used to detect the concentration of albumin in the BAL fluid of each group, and the results are shown in FIG. 11. Furthermore, the number of MPO+, CD40+, and CD11b/c+ cells in the BAL fluid of each group was calculated by flow cytometry.

[4] = tested on: rat model of acute respiratory distress syndrome; assay: MPO+, CD40+, CD11b/c+ cells in BAL fluid by flow cytometry; type: in vivo; conditions: ARDS rats; doses of Example 5
Protocol: as §1, §3

[5] = tested on: rat model of acute respiratory distress syndrome; assay: lung sections: immunofluorescence and transmission electron microscopy of mitochondria; type: in vivo; conditions: compared with second group (ARDS)
Protocol: as §1
The left lungs of rats in each group were inflated with constant airway pressure (15-20 mmHg) and embedded with OCT (Tissue-Tek) for immunohistochemical staining. The right lungs of rats in each group were fixed with 4% paraformaldehyde and 0.1% glutaraldehyde phosphate buffer solution, then embedded in paraffin, and stained with hematoxylin and eosin. […]

[6] = tested on: rat model of acute respiratory distress syndrome; assay: lung histology (hematoxylin and eosin): alveolar sacs and crowded area; type: in vivo; conditions: per high power field 100×; ARDS rats; doses of Example 5
Excerpt: as §2
The integral of the crowded area in the lung tissue of rats in each group was further calculated by the following criteria: 0 represents no overlap; 1 represents less than 15% of crowded area in each of the high magnification fields; 2 represents 15-25% of crowded area in each of the high magnification fields; 3 represents 25-50% of crowded area in each of the high magnification fields; 4 represents 50-75% of crowded area in each of the high magnification fields; 5 represents 75-100% of crowded area in each of the high magnification fields. […]

[7] = tested on: rat model of acute respiratory distress syndrome; assay: immunostaining of lung sections for F4/80, γ-H2AX, Cx43, heme oxygenase-1; type: in vivo; conditions: positive cells per HPF 400×; ARDS rats
Protocol: as §1
The paraffin sections of the lung tissue of each group were rehydrated with 3% hydrogen peroxide for 30 minutes, followed by the addition of a high-performance Immuno-Block reagent (BioSB) at room temperature for 30 minutes. The sections were then treated with the specific primary antibody of the following proteins, respectively: F4/80 (1:100, Abcam), γ-H2AX (1:500, Abcam), heme oxygenase-1 (HO-1; 1:2000, Abcam), and Cx43. Immunohistochemical staining was performed on the sections of the lung tissue of each group to observe the expression of F4/80, γ-H2AX, heme oxygenase-1, and Cx43 in cells. In addition, the expression of the proteins mentioned above in the lung tissue sections of each group was quantified, and the results are shown in FIG. 20 to FIG. 23. The red fluorescence represents the exogenous mitochondria labeled by mito-tracker, and the green fluorescent represents the mitochondria within the lungs. […]

[8] = tested on: rat model of acute respiratory distress syndrome; assay: western blotting / Oxyblot of lung parenchyma protein extracts; type: in vivo
Excerpt: (§4) The term “protein oxidation detection kit” disclosed in the present invention refers to methods for detecting protein oxidation in cells. For example, the Oxyblot Oxidized Protein Detection Kit S7150 (Chemicon) used in the examples of the present invention detects oxidized proteins by labeling oxidized proteins in a sample with 2,4-dinitrophenylhydrazine (DNPH), separating proteins in the sample with 12% SDS polyacrylamide gel electrophoresis, transferring the separated proteins onto a transfer membrane, such as a nitrocellulose membrane, immersing the transfer membrane in buffer containing anti-DNP primary antibody (1:150) for about 2 hours, then immersing the transfer membrane in buffer containing secondary antibody (1:300) at room temperature for about an hour, and then observing expression of oxidized proteins in the sample.
as §1
The protein extracts of the left lungs of rats in each group were prepared. The same amount (10 to 30 μg) of protein extracts of rats in each group was detected by western blotting and Oxyblot Oxidized Protein Detection Kit S7150, Chemicon, respectively. The results were observed by enhanced chemiluminescence (ECL, Amersham Biosciences), and the performance of each protein was quantified by software (Labwork software, UVP).
Specifically, the procedure and conditions of western blotting were as follows: Proteins were separated by SDS gel electrophoresis with a gradient of 8-10% polyacrylamide solution. The blocking agent used was a T-TBS solution containing 5% skimmed milk powder and 0.05% Tween. Primary antibodies were against the following proteins respectively: NOX-1 (1:1500, Sigma), NOX-2 (1:750, Sigma), NOX-4 (1:1000, Abcam), or interacted with polyclonal antibodies that were against the following proteins: tumor necrosis factor α (1:1000, Cell Signaling), nuclear factor κB (1:250, Abcam), matrix metalloproteinase 9 (1:3000, Abcam), transforming growth factor β (1:1000, Abcam), Smad3 (1:500, Cell Signaling), bone morphogenetic protein-2 (1:100, Abcam), Smad 1/5 (1:500, Cell Signaling), GR (1:1000, Abcam), GPx (1:1000, Abcam), Cytochrome C (1:2000, BD), NQO 1 (NAD(P)H: quinone oxidoreductase 1; 1:1000, Abcam), Heme oxygenase-1 (1:250, Abcam), caspases 3 (1:1000, Cell Signaling), and PARP (poly (ADP-ribose) polymerase; 1:1000, Cell Signaling). Secondary antibodies conjugated to HRP enzymatic fluorescence are goat antibody against mouse IgG, goat antibody against rat IgG, or goat antibody against rabbit IgG.

[9] = tested on: human umbilical vein endothelial cells; assay: intracellular protein oxidation (Oxyblot) under menadione oxidative stress; type: cell-based; conditions: after 0.5 hours and 6 hours of treatment; mitochondria after menadione vs menadione only; menadione vs untreated
Excerpt: as §4
Human umbilical vein endothelial cells were divided into three groups. The human umbilical vein endothelial cells of the first group remained untreated. […] Protein oxidation in each group was detected after 0.5 hours and 6 hours of treatment with a commercially available protein oxidation assay kit (Oxyblot Oxidized Protein Detection Kit S7150, Chemicon), and oxidative stress in cells of each group was further analyzed with a software (Labwork software, UVP).

For `COc1ccc2[nH]cc(CCNC(C)=O)c2c1` [melatonin], the “oxygen saturation (group comparison)” value [1] was “significantly higher than that of the fourth group”, the “right ventricular systolic pressure (group comparison)” value [2] was “significantly reduced” and the “albumin concentration in BAL fluid” value [3] was “significantly lower than those in the second group”. For the same compound, the “number of inflammatory cells (MPO+, CD40+, CD11b/c+) in BAL fluid” value [4] was “significantly lower than those in the second group”, the “mitochondrial morphology in lung tissue (size, cristae; TEM)” value [5] was “smaller, and there are cristae in the mitochondrial inner membranes” and the “number of alveolar sacs” value [6] was “significantly higher than that in the second group”. The “expression of F4/80 in lung sections” value [7] was “significantly lower than the fourth group”, the “expression of heme oxygenase-1 in lung sections” value [7] was “significantly higher then the second group” and the “expression of γ-H2AX in lung sections” value [7] was “significantly lower than the fourth group”. For the same compound, the “oxidative stress (oxidized proteins)” value ([8]; Oxyblot) was “significantly lower than that of the second and fourth groups”, the “expression level of GPx” value ([8]; western blot) was “significantly higher than those of the second and fourth groups” and the “expression level of GR” value ([8]; western blot) was “significantly higher than those of the second and fourth groups”. For the same compound, the “expression level of Heme oxygenase-1” value ([8]; western blot) was “significantly higher than those of the second and fourth groups”, the “expression level of NOX-1” value ([8]; western blot) was “significantly lower than those of the second and fourth groups” and the “expression level of NOX-2” value ([8]; western blot) was “significantly lower than those of the second and fourth groups”. The “expression level of NOX-4” value ([8]; western blot) was “significantly lower than those of the second and fourth groups”, the “expression level of NQO 1” value ([8]; western blot) was “significantly higher than those of the second and fourth groups” and the “expression level of Smad3” value ([8]; western blot) was “significantly lower than those of the second and fourth groups”. For the same compound, the “expression level of activated PARP” value ([8]; western blot) was “significantly lower than those of the second and fourth groups”, the “expression level of activated caspase-3” value ([8]; western blot) was “significantly lower than those of the second and fourth groups” and the “expression level of cytochrome c (cytosol)” value ([8]; western blot) was “significantly lower than those of the second and fourth groups”. The “expression level of matrix metalloproteinase 9” value ([8]; western blot) was “significantly lower than those of the second and fourth groups”, the “expression level of nuclear factor κB” value ([8]; western blot) was “significantly lower than those of the second and fourth groups” and the “expression level of transforming growth factor β” value ([8]; western blot) was “significantly lower than those of the second and fourth groups”. The “expression level of tumor necrosis factor α” value ([8]; western blot) was “significantly lower than those of the second and fourth groups”.
In the case of `CC1=CC(=O)c2ccccc2C1=O` [menadione], the “protein oxidation in cells” value [9] is reported as “increased significantly”.
